Values quoted from earlier work, collected in US7244749B2, “Compositions and methods for lowering plasma lipoprotein(a) and risk factors of cardiovascular diseases” (priority 2000, dated 2007).

Tested on: plasma Lp(a)
Conditions: males with prostatic cancer

**Q.** Which “reduction of plasma Lp(a)” value does the source give for Estrogen here?
**A.** Its value is 50%.
